How the values were obtained:
[1] = Liquid; for mass density: Vibrating tube method; for speed of sound: sound velocity cell
[2] = xn = mol fraction of the nth substance listed; conditions: 101 kPa, Liquid, x2 = 0; for mass density: Vibrating tube method; for speed of sound: sound velocity cell

CC(=O)[O-].[NH3+]CCO [2-hydroxyethylammonium acetate]
[1]
Conditions | mass density, 101 kPa [kg/m3] | mass density, 101.33 kPa [kg/m3] | speed of sound, 101 kPa [m/s] | speed of sound, 101.33 kPa [m/s]
288.15 K | 1154.7 | – | 1817.2 | –
290.65 K | 1153.28 | – | 1810 | –
293.15 K | 1151.87 | – | 1803.2 | –
295.65 K | 1150.45 | – | 1796.8 | –
298.15 K | – | 1149.04 | 1790.7 | 1790.7
300.65 K | 1147.63 | – | 1784.8 | –
303.15 K | 1146.22 | – | 1779 | –
305.65 K | 1144.8 | – | 1773.4 | –
308.15 K | 1143.39 | – | 1767.9 | –
310.65 K | 1141.96 | – | 1762.5 | –
313.15 K | 1140.55 | – | 1757.2 | –
315.15 K | 1139.18 | – | – | –
315.65 K | 1139.18 | – | 1751.9 | –
318.15 K | 1137.82 | – | 1746.5 | –
320.65 K | 1136.45 | – | 1741.3 | –
323.15 K | 1135.08 | – | 1736 | –

CCO [ethanol]
[1], 101 kPa
Conditions | mass density [kg/m3] | speed of sound [m/s]
288.15 K | 793.828 | 1177.8
290.65 K | 791.692 | 1169.2
293.15 K | 789.553 | 1160.6
295.65 K | 787.411 | 1152
298.15 K | 785.261 | 1143.5
300.65 K | 783.106 | 1135
303.15 K | 780.944 | 1126.5
305.65 K | 778.773 | 1118.1
308.15 K | 776.593 | 1109.7
310.65 K | 774.405 | 1101.2
313.15 K | 772.204 | 1092.8
315.65 K | 769.995 | 1084.5
318.15 K | 767.77 | 1076.2
320.65 K | 765.534 | 1067.9
323.15 K | 763.296 | 1059.6

CCO [ethanol] + CC(=O)[O-].[NH3+]CCO
[2]
Conditions | mass density [kg/m3] | speed of sound [m/s]
288.15 K | 793.828 | 1177.8
290.65 K | 791.692 | 1169.2
293.15 K | 789.553 | 1160.6
295.65 K | 787.411 | 1152
298.15 K | 785.261 | 1143.5
300.65 K | 783.106 | 1135
303.15 K | 780.944 | 1126.5
305.65 K | 778.773 | 1118.1
308.15 K | 776.593 | 1109.7
310.65 K | 774.405 | 1101.2
313.15 K | 772.204 | 1092.8
315.65 K | 769.995 | 1084.5
318.15 K | 767.77 | 1076.2
320.65 K | 765.534 | 1067.9
323.15 K | 763.296 | 1059.6

CO [methanol]
[1], 101 kPa
Conditions | mass density [kg/m3] | speed of sound [m/s]
288.15 K | 796.694 | 1136.3
290.65 K | 793.768 | 1127.7
293.15 K | 791.418 | 1119.5
295.65 K | 789.066 | 1111.3
298.15 K | 786.71 | 1103
300.65 K | 784.349 | 1094.7
303.15 K | 781.983 | 1086.5
305.65 K | 779.612 | 1078.3
308.15 K | 777.234 | 1070.2
310.65 K | 774.851 | 1062.1
313.15 K | 772.458 | 1054
315.65 K | 770.058 | 1045.9
318.15 K | 767.647 | 1037.9
320.65 K | 765.229 | 1029.9
323.15 K | 762.809 | 1022

CO [methanol] + CC(=O)[O-].[NH3+]CCO
[2]
Conditions | mass density [kg/m3] | speed of sound [m/s]
288.15 K | 796.694 | 1136.3
290.65 K | 793.768 | 1127.7
293.15 K | 791.418 | 1119.5
295.65 K | 789.066 | 1111.3
298.15 K | 786.71 | 1103
300.65 K | 784.349 | 1094.7
303.15 K | 781.983 | 1086.5
305.65 K | 779.612 | 1078.3
308.15 K | 777.234 | 1070.2
310.65 K | 774.851 | 1062.1
313.15 K | 772.458 | 1054
315.65 K | 770.058 | 1045.9
318.15 K | 767.647 | 1037.9
320.65 K | 765.229 | 1029.9
323.15 K | 762.809 | 1022

O [water]
[1], 101 kPa
Conditions | mass density [kg/m3] | speed of sound [m/s]
290.65 K | 998.68 | 1474.7
295.65 K | 997.65 | 1489.9
300.65 K | 996.37 | 1503.4
305.65 K | 994.86 | 1515.1
310.65 K | 993.15 | 1525
313.15 K | – | 1529.3
315.15 K | 991.24 | –
315.65 K | – | 1533.2
318.15 K | – | 1536.6
320.65 K | 989.15 | 1539.6
323.15 K | 988.04 | 1542.1

O [water] + CC(=O)[O-].[NH3+]CCO
[2]
Conditions | mass density [kg/m3] | speed of sound [m/s]
290.65 K | 998.68 | 1474.7
295.65 K | 997.65 | 1489.9
300.65 K | 996.37 | 1503.4
305.65 K | 994.86 | 1515.1
310.65 K | 993.15 | 1525
313.15 K | – | 1529.3
315.15 K | 991.24 | –
315.65 K | – | 1533.2
318.15 K | – | 1536.6
320.65 K | 989.15 | 1539.6
323.15 K | 988.04 | 1542.1
